Experimental findings from patent US20060189539A1, “Novel GnRH analogues with antitumour effects and pharmaceutical compositions thereof” (priority 1994, published 2006) are described below.

Test [1] concerns Ishikawa human endometrium carcinoma cell line. The experiment in a line: Inhibition of colony formation (dose-survival), Example 18. The test is classed as cell-based. As to conditions: 50 μM. The source says: (§1) Human cell lines used in in vitro experiments. MCF-7 human mammary tumour cell line was stabilized in 1973 by Soule et al. from the pleural fluid of mammary carcinoma patients. The cells grow in monolayer and are epithelial in their character. MDA-MB-231 human mammary carcinoma cell line was isolated and stabilized in 1974 by Cailleau et al. similarly from pleural fluid. These cells also grow in monolayer. PC3 human prostate carcinoma cell line was stabilized 20 in 1979 in cell culture by Kaighn et al.; the cells are of simple epithelium type and form compact colonies in clonogenic assays. Ishikawa cell line originated from adenocarcinoma of human endometrium [Nishida et al.: Obstet. Gynecol. Jpn, 37, 25 1103-1111 (1985)], has epithelial character and contains steroid as well as GnRH receptors. Human tumour cell lines are maintained in plastic flasks (Greiner) in Dulbecco-6modified Eagle-MEM (DMEM GIBCO) nutritive medium. The medium used herein contained 10% of fetal calf serum (FCS).
(§2) In the case of cytostatics the cell-damaging effect is not cell-specific. […] One part of the arrested cells again go into the cycle, the other part may perish (apoptosis). […] The investigations were carried out on MCF-7 and MDA-MB-231 human mammary carcinoma cell lines, PC3 human prostate 15 carcinoma cell line and Ishikawa human endometrium carcinoma cell line. Threehundred cells were set into Petri dishes of 3.5 cm in diameter each. The treatment was carried out once, 24 hours following the explantation, then the colonies formed were counted after 9 to 12 days.

In test [2] the test system is MCF-7 human mammary carcinoma cell line. Described as above. The settings on record: 50 μM. Type of test: cell-based.
Text: as §1, §2

In test [3] the test system is MDA-MB-231 human mammary carcinoma cell line. Described as above. Type of test: cell-based. As to conditions: 50 μM.
Text: as §1, §2

In test [4] the test system is PC3 human prostate carcinoma cell line. The test is described as above. The test is classed as cell-based. The settings on record: 30 μM.
Text: as §1, §2

The next test deals with MCF-7 xenograft. The experiment in a line: In vivo antitumour effect on MCF-7 xenograft. Also noted: species or system immunosuppressed CBA/Ca mice. As to conditions: 2 × 25 μg. As to the method:
The immunosuppression of mice was carried out by using the method of Steel et al. (1978).
CBA/Ca female mice of about 6 weeks old were thymectomized and then, after one week, they were irradiated with 60Co (whole body irradiation; the lethal dose is 9.5 Gray). Within 24 hours 3 to 5×10^5 myelocytes were injected to the animals. Beneath the skin of the immunosuppressed mice 2×10^7 tumour cells or, in the case of later passages, about 2 mm^3 of tumour cells or in the case of later, additional passages about 2 mm^3 of tumour pieces were implanted. […] The treatment with steroid hormone was stopped by at least one week before beginning the investigation.
In the case of MCF-7 tumours (xenografts) the examinations were carried out with passages being in the phase of the 37th and 38th, respectively, transplantations.
In the case of mice bearing MCF-7 xenograft, the treatment was begun in the 4th week following xeno-transplantation.
Recent investigations have begun on 28 animals bearing MCF-7 xenograft .and on 28 animals bearing MDA-MB-231 xenograft. On animals bearing MCF-7 tumour the treatment was commenced in the 5th week following xeno-transplantation; the tumour volume was 205 to 225 mm^3. On animals bearing MDA-MB-231 tumour, the treatment was started in the 4th week after xeno-transplantation with a tumour volume of 140 to 150 mm^3. […] The control groups were daily treated with physiological saline s.c. (Each treated group consisted of 7 animals.)

A further test concerns B-lymphocytes. The test is described as follows: Humoral immune response (antibody production of B-lymphocytes). Type of test: in vivo, mice. As to conditions: for Increase of the humoral immune response: mice.
Another test concerns T-lymphocytes. The test is described as follows: Cellular immune response (rosette formation against BRBC antigen). The test is classed as in vivo, mice. From the text:
The immunosuppressive side effect of cytostatics used in tumour therapy is commonly known. This effect can be compensated to a certain grade by various immunostimulants (endotoxin, levamisole). Polypeptides with much […] molecular weights (about 40,000 to 80,000) are also capable of protecting against immunosuppressive effect [Gal et al.: J. Biol. Resp. Modif. 5, 148-159 (1986)). The molecular weight of the novel polyanionic P-GFLG-OH macromolecule tested by us is about 10,000, that of MI-1892 is about 2000, i.e. relatively low; therefore, their immunostimulatory activity was unexpected.

Non-standard residues stand in square brackets, D forms with d. Residues, ends and D or L forms follow the SMILES beside them. Groups on a side chain read outwards from the residue. *: point of attachment. dPhe(4-Cl) = N[C@H](Cc1ccc(Cl)cc1)C(=O)O; NEt2 = CCN(CC)*

As to “{Lys[n-poly(N-vinylpyrrolidone-co-maleic acid)-Gly-Phe-Leu-Gly-]}4,-GnRH-III [P-GFLG-Lys4-GnRH-III]”, the “% Inhibition of colony formation” value came out at 25% in test [1], 68% in test [2], 75% in test [3] and 94% in test [4].
Regarding `CCN(CC)C(=O)[C@H](CC(=O)N[C@@H](CC(C)C)C(=O)N[C@@H](CCC(N)=O)C(=O)N1CCC[C@H]1C(=O)N[C@H](C)C(N)=O)NC(=O)[C@H](CCCCN)NC(=O)[C@H](CO)NC(=O)[C@@H](Cc1c[nH]c2ccccc12)NC(=O)[C@@H](Cc1ccc(Cl)cc1)NC(=O)[C@@H](Cc1c[nH]c2ccccc12)NC(C)=O` [MI-1892, Ac-D-Trp^1,3,D-Cpa^2,Lys^5,[β-Asp(DEA)]^6,D-Ala^10-hGnRH, reference compound] (Ac-[dW][dPhe(4-Cl)][dW]SKD([Leu-Gln-Pro-dA-NH2])-NEt2), the Inhibition % in the test on MCF-7 xenograft (week 4) is 22.5%; in the test on MCF-7 xenograft (week 6), 21%. In addition, in the test with B-lymphocytes (dose not stated), the “Effect on the humoral immune response” value is “strengthened”. Besides, the “Increase of the humoral immune response” value is reported as “more than twofold” in the test on B-lymphocytes (50 μg/mouse) and “threefold” in the test with B-lymphocytes (100 μg/mouse). In the test with T-lymphocytes (100 μg/mouse), the “Increase of the cellular immune response” value is given as “nearly twofold”. For the same compound, the “Effect on the cellular immune response (activity of T-lymphocytes against BRBC antigen)” value in the test with T-lymphocytes (dose not stated) is “increased”.
